Reference: patent US6376670B1, “Quinoline-indole antimicrobial agents, uses and compositions related thereto” (Sepracor Inc., priority 1997, dated 2002)
Like-named read-outs stand apart in the source and are kept apart here.

What was measured:
Experiment in all cases: Determination of MIC values (BHI broth, 96 well microtiter plate)
Format in all cases: cell-based
Streptococcus pneumoniae = conditions: BHI broth; for MIC: Streptococcus pneumoniae, read-out: MIC S. pneu
Summary of the method: (§1)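 Organisms are grown in BHI at 37° C (about 7% CO2) to a 0.5 McFarland standard, then inoculated at 10^5 to 10^6 cells/mL into BHI holding twofold compound dilutions (final 25 down to 0.39 µg/mL, DMSO-diluted). After overnight incubation, MIC is the lowest concentration lacking growth.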

[1] = system: methicillin-resistant Staphylococcus aureus (MRSA); conditions: BHI broth; for MIC: Staphylococcus aureus, MRSA, read-out: MIC MRSA
Summary of the method: as §1

[2] = system: vancomycin-resistant Enterococcus spp. (VRE); conditions: BHI broth; for MIC: Enterococcus, VRE, read-out: MIC VREF
Summary of the method: as §1

[3] = 37° C., overnight (about 16 hours)
[4] = 16 h, 37° C., overnight (about 16 hours)

| SMILES | MIC (Streptococcus pneumoniae; S. pneu, overnight 37° C.) [µg/mL] | MIC ([1]; overnight 37° C.) [µg/mL] | MIC ([2]; VREF, overnight 37° C.) [µg/mL] | further results |
| --- | --- | --- | --- | --- |
| Cn1cc(-c2cc(C(=O)NCc3ccc(CN)cc3)c3ccccc3n2)c2cc(Br)ccc21 [Example 119] |  |  |  | MIC (Streptococcus pneumoniae; [3]): < 7 µg/mL; MIC [1, 4]: < 7 µg/mL; MIC [2, 4]: < 25 µg/mL |
| CCB(OC)C(=O)c1cc(-c2c[nH]c3ccc(Br)cc23)nc2cc(Br)ccc12 [Example 375] | > 25 | > 25 | > 25 |  |
| COc1ccc(NC(=O)c2cc(-c3c[nH]c4ccc(Br)cc34)nc3ccc(C#CCN4CCCCC4)cc23)cc1 [Example 485] |  |  |  | MIC (Streptococcus pneumoniae; 37° C., about 16 hours): < 25 µg/mL; MIC ([1]; 16 h, 37° C., about 16 hours): < 7 µg/mL; MIC ([2]; 16 h, 37° C., about 16 hours): > 25 µg/mL |
| Cn1cc(-c2cc(C(=O)NCc3cccc(CN)c3)c3ccc(I)cc3n2)c2cc(Br)ccc21 [Example 330] | < 7 | < 7 | < 7 |  |
| O=[N+]([O-])c1cccc2nc(-c3c[nH]c4cc(F)ccc34)ccc12 [Example 388] | > 25 | > 25 | > 25 |  |
| Brc1ccc2[nH]cc(-c3ccc4ccccc4n3)c2c1 [Example 165] |  |  |  | MIC (Streptococcus pneumoniae; [3]): < 7 µg/mL; MIC [1, 4]: < 7 µg/mL; MIC [2, 4]: < 7 µg/mL |
| Cn1cc(-c2ccc3cc(Cl)ccc3n2)c2cc(C#N)ccc21 [Example 218] | > 25 | < 7 | > 25 |  |
| COc1ccc2nc(-c3c[nH]c4ccccc34)ccc2c1 [Example 480] |  |  |  | MIC (Streptococcus pneumoniae; 37° C., about 16 hours): > 25 µg/mL; MIC ([1]; 16 h, 37° C., about 16 hours): > 25 µg/mL; MIC ([2]; 16 h, 37° C., about 16 hours): > 25 µg/mL |
| NCc1ccc(CNC(=O)c2cc(-c3c[nH]c4ccc(Br)cc34)nc3cc(Cl)c(C#CCN4CCSCC4)cc23)cc1 [Example 272] | < 7 | < 7 | < 7 |  |
| Cn1cc(-c2cc(C(=O)NCc3cccc(CN)c3)c3ccc(F)cc3n2)c2cc(Br)ccc21 [Example 327] | < 7 | < 25 | > 25 |  |
| NCCNC(=O)c1cc(-c2c[nH]c3ccc(Br)cc23)nc2cc(Cl)c(I)cc12 [Example 294] | < 7 | < 7 | < 7 |  |
| Cc1cccc2c(-c3cc(Cl)c4ccc(Cl)cc4n3)c[nH]c12 [Example 476] |  |  |  | MIC (Streptococcus pneumoniae; 37° C., about 16 hours): < 25 µg/mL; MIC ([1]; 16 h, 37° C., about 16 hours): > 25 µg/mL; MIC ([2]; 16 h, 37° C., about 16 hours): > 25 µg/mL |
| Cn1cc(-c2cc(C(=O)NCc3ccc(CN)cc3)c3cc(C#CCN4CCCC4)ccc3n2)c2cc(Br)ccc21 [Example 393] | < 25 | < 7 | < 25 |  |
| Cn1cc(-c2cc(C(=O)NCc3ccc(CN)cc3)c3cc(C#CCN4CCCCC4)ccc3n2)c2cc(Br)ccc21 [Example 376] | < 7 | < 25 | < 25 |  |
| CN1CCN(CC#Cc2ccc3nc(-c4cn(C)c5ccc(Br)cc45)cc(C(=O)NCc4ccc(CN)cc4)c3c2)CC1 [Example 395] | < 25 | < 7 | < 25 |  |
| Cc1ccc2nc(-c3c[nH]c4ccc(Br)cc34)cc(C(=O)NCc3cccc(CN)c3)c2c1 [Example 122] |  |  |  | MIC (Streptococcus pneumoniae; [3]): < 7 µg/mL; MIC [1, 4]: < 7 µg/mL; MIC [2, 4]: < 7 µg/mL |
| Cn1cc(-c2ccc3cc(Cl)ccc3n2)c2c(F)cccc21 [Example 211] | > 25 | < 25 | > 25 |  |
| Fc1ccc2[nH]cc(-c3cc(Cl)c4ccccc4n3)c2c1 [Example 339] | < 7 | < 7 | < 7 |  |
| Clc1ccc2nc(-c3c[nH]c4ccc(Cl)cc34)ccc2c1 [Example 169] |  |  |  | MIC (Streptococcus pneumoniae; [3]): < 7 µg/mL; MIC [1, 4]: < 7 µg/mL; MIC [2, 4]: > 25 µg/mL |
| Cn1cc(-c2cc(C(=O)O)c3ccc(F)cc3n2)c2cc(Br)ccc21 [Example 310] | < 25 | < 25 | > 25 |  |
| OCc1cc(-c2c[nH]c3ccc(Br)cc23)nc2cc(F)ccc12 [Example 490] |  |  |  | MIC S. pneu (Streptococcus pneumoniae; 37° C., about 16 hours): < 7 µg/mL; MIC MRSA ([1]; 37° C., about 16 hours): < 7 µg/mL; MIC VREF ([2]; 37° C., about 16 hours): >25 µg/mL |
| NCc1ccc(CNC(=O)c2cc(-c3c[nH]c4ccc(Br)cc34)nc3c(C#CCN4CC=CCC4)cccc23)cc1 [Example 305] | < 7 | < 7 | < 7 |  |
| Clc1cc(-c2c[nH]c3c(Cl)cccc23)nc2ccccc12 [Example 344] | < 7 | < 7 | > 25 |  |
| CNCCN(C)C(=O)c1cc(-c2c[nH]c3ccc(Br)cc23)nc2cc(Cl)c(C#CCN3CCCCC3)cc12 [Example 513] |  |  |  | MIC (Streptococcus pneumoniae; 37° C., about 16 hours): < 7 µg/mL; MIC ([1]; 16 h, 37° C., about 16 hours): < 7 µg/mL; MIC ([2]; 16 h, 37° C., about 16 hours): < 7 µg/mL |
| NCC1CCC(CNC(=O)c2cc(-c3c[nH]c4ccc(Br)cc34)nc3cc(Cl)cc(Cl)c23)CC1 (stereo not drawn) [Example 247] | < 7 | < 7 | < 7 |  |
| O=C(c1cc(-c2c[nH]c3cc(F)ccc23)nc2cc(F)ccc12)N1CCNCC1 [Example 498] |  |  |  | MIC (Streptococcus pneumoniae; 37° C., about 16 hours): < 25 µg/mL; MIC ([1]; 16 h, 37° C., about 16 hours): < 25 µg/mL; MIC ([2]; 16 h, 37° C., about 16 hours): > 25 µg/mL |

| SMILES | MIC (Streptococcus pneumoniae; S. pneu, overnight 37° C.) [µg/mL] | MIC ([1]; overnight 37° C.) [µg/mL] | MIC ([2]; VREF, overnight 37° C.) [µg/mL] | further results |
| --- | --- | --- | --- | --- |
| NCc1cccc(CNC(=O)c2cc(-c3c[nH]c4ccc(Br)cc34)nc3c(Cl)c(Cl)ccc23)c1 [Example 276] | > 25 | < 7 | < 7 |  |
| OCc1cc(-c2c[nH]c3ccc(Br)cc23)nc2cc(Cl)ccc12 [Example 456] |  |  |  | MIC (Streptococcus pneumoniae; 37° C., about 16 hours): < 7 µg/mL; MIC ([1]; 16 h, 37° C., about 16 hours): < 7 µg/mL; MIC VREF ([2]; 37° C., about 16 hours): <7 µg/mL |
| Fc1ccc2c(-c3cc(Cl)c4ccccc4n3)c[nH]c2c1 [Example 340] | < 7 | < 7 | < 7 |  |
| Clc1ccc2nc(-c3c[nH]c4c(Br)cccc34)ccc2c1 [Example 355] | > 25 | > 25 | > 25 |  |
| NCc1ccc(CNC(=O)c2cc(-c3c[nH]c4ccc(Br)cc34)nc3ccc(C(F)(F)F)cc23)cc1 [Example 103] |  |  |  | MIC (Streptococcus pneumoniae; [3]): < 7 µg/mL; MIC [1, 4]: < 7 µg/mL; MIC [2, 4]: < 7 µg/mL |
| Cn1cc(-c2cc(C(=O)NCc3ccc(CN)cc3)c3cc(C#CCN4CC=CC4)ccc3n2)c2cc(Br)ccc21 [Example 396] | > 25 | > 25 | > 25 |  |
| NCC1CCCC(CNC(=O)c2cc(-c3c[nH]c4ccc(Br)cc34)nc3c(Cl)c(Cl)ccc23)C1 (stereo not drawn) [Example 278] | < 7 | < 7 | < 7 |  |
| NC1CCC(NC(=O)c2cc(-c3c[nH]c4ccc(Br)cc34)nc3ccc(Cl)cc23)CC1 (stereo not drawn) [Example 131] |  |  |  | MIC (Streptococcus pneumoniae; [3]): < 7 µg/mL; MIC [1, 4]: < 7 µg/mL; MIC [2, 4]: < 25 µg/mL |
| NCCCNC(=O)c1cc(-c2c[nH]c3ccc(Br)cc23)nc2ccc(I)cc12 [Example 108] |  |  |  | MIC (Streptococcus pneumoniae; [3]): < 7 µg/mL; MIC [1, 4]: < 7 µg/mL; MIC [2, 4]: < 7 µg/mL |
| N#Cc1ccc2[nH]cc(-c3cc(Cl)c4ccccc4n3)c2c1 [Example 350] | > 25 | > 25 | > 25 |  |
| NCc1cccc(CNC(=O)c2cc(-c3c[nH]c4ccc(Br)cc34)nc3cc(I)ccc23)c1 [Example 252] | < 7 | < 7 | < 7 |  |
| NCc1ccc(CNC(=O)c2cc(-c3c[nH]c4ccc(Br)cc34)nc3ccc(C#CCNC4CCCCC4)cc23)cc1 [Example 236] | < 7 | < 7 | < 7 |  |
| Clc1ccc2nc(-c3c[nH]c4cc(Cl)ccc34)ccc2c1 [Example 202] | < 7 | < 7 | > 25 |  |
| NCCCCCNC(=O)c1cc(-c2c[nH]c3cc(F)ccc23)nc2cc(F)ccc12 [Example 497] |  |  |  | MIC (Streptococcus pneumoniae; 37° C., about 16 hours): < 25 µg/mL; MIC ([1]; 16 h, 37° C., about 16 hours): < 25 µg/mL; MIC ([2]; 16 h, 37° C., about 16 hours): < 25 µg/mL |
| Cn1cc(-c2cc(C(=O)NCc3ccc(CN)cc3)c3cc(C#CCNCC4CCCCC4)ccc3n2)c2cc(Br)ccc21 [Example 391] | < 7 | < 7 | < 7 |  |
| NCCCCCNC(=O)c1cc(-c2c[nH]c3ccc(Br)cc23)nc2ccc(I)cc12 [Example 110] |  |  |  | MIC (Streptococcus pneumoniae; [3]): < 7 µg/mL; MIC [1, 4]: < 7 µg/mL; MIC [2, 4]: < 7 µg/mL |
| CNCCN(C)C(=O)c1cc(-c2c[nH]c3ccc(Br)cc23)nc2ccc(I)cc12 [Example 502] |  |  |  | MIC (Streptococcus pneumoniae; 37° C., about 16 hours): < 7 µg/mL; MIC ([1]; 16 h, 37° C., about 16 hours): < 7 µg/mL; MIC ([2]; 16 h, 37° C., about 16 hours): < 7 µg/mL |
| O=[N+]([O-])c1ccc2[nH]cc(-c3ccc4cc(Cl)ccc4n3)c2c1 [Example 196] |  |  |  | MIC (Streptococcus pneumoniae; [3]): < 25 µg/mL; MIC [1, 4]: < 7 µg/mL; MIC [2, 4]: > 25 µg/mL |
| CN(C)CCN(C)C(=O)c1cc(-c2cn(C)c3ccc(Br)cc23)nc2cc(Cl)ccc12 [Example 507] |  |  |  | MIC (Streptococcus pneumoniae; 37° C., about 16 hours): < 7 µg/mL; MIC ([1]; 16 h, 37° C., about 16 hours): < 7 µg/mL; MIC ([2]; 16 h, 37° C., about 16 hours): < 7 µg/mL |
| NCC1CCCC(CNC(=O)c2cc(-c3c[nH]c4ccc(Br)cc34)nc3ccc(I)cc23)C1 (stereo not drawn) [Example 115] |  |  |  | MIC (Streptococcus pneumoniae; [3]): < 7 µg/mL; MIC [1, 4]: < 7 µg/mL; MIC [2, 4]: < 7 µg/mL |
| NCc1ccc(COCc2cc(-c3c[nH]c4ccc(Br)cc34)nc3ccc(C(F)(F)F)cc23)cc1 [Example 154] |  |  |  | MIC (Streptococcus pneumoniae; [3]): < 7 µg/mL; MIC [1, 4]: < 7 µg/mL; MIC [2, 4]: < 7 µg/mL |
| Cn1cc(-c2cc(C(=O)NCCN)c3cc(C#CCNCCc4ccccc4)ccc3n2)c2cc(Br)ccc21 [Example 399] | < 7 | < 7 | < 7 |  |
| CCOc1cc(-c2c[nH]c3ccc(Br)cc23)nc2ccc(I)cc12 [Example 364] | < 7 | < 7 | < 25 |  |
| Cn1cc(-c2ccc3cc(Cl)ccc3n2)c2cc([N+](=O)[O-])ccc21 [Example 232] | < 7 | < 7 | < 7 |  |
| Oc1ccc2[nH]cc(-c3cc(Cl)c4ccccc4n3)c2c1 [Example 347] | < 25 | < 25 | > 25 |  |
| CNCCN(C)C(=O)c1cc(-c2cn(C)c3ccc(Br)cc23)nc2cc(Cl)ccc12 [Example 506] |  |  |  | MIC (Streptococcus pneumoniae; 37° C., about 16 hours): < 7 µg/mL; MIC ([1]; 16 h, 37° C., about 16 hours): < 7 µg/mL; MIC ([2]; 16 h, 37° C., about 16 hours): < 7 µg/mL |
